Source: PubChem BioAssay (NCI)
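Results reflect a 48-hour exposure of cells in 96-well plates to compound at five concentrations. Definition used: TGI = concentration required for complete inhibition of growth.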

Experiments:
Assay in all cases: NCI anticancer screen, dose series, 48 h
HCT-116 colon = system: HCT-116 colon
IGROV1 ovarian = system: IGROV1 ovarian
M14 melanoma = system: M14 melanoma
MDA-MB-435 = system: MDA-MB-435
MDA-N = system: MDA-N
NCI-H23 lung = system: NCI-H23 lung
PC-3 prostate = system: PC-3 prostate
SF-268 CNS = system: SF-268 CNS
SK-MEL-2 melanoma = system: SK-MEL-2 melanoma
SNB-19 CNS = system: SNB-19 CNS

Compound | TGI (HCT-116 colon) [µM] | TGI (IGROV1 ovarian) [µM] | TGI (M14 melanoma) [µM] | TGI (MDA-MB-435) [µM] | TGI (MDA-N) [µM] | TGI (NCI-H23 lung) [µM] | TGI (PC-3 prostate) [µM] | TGI (SF-268 CNS) [µM] | TGI (SK-MEL-2 melanoma) [µM] | TGI (SNB-19 CNS) [µM]
CC(C)C(/C=C/c1ccc(Cl)cc1)=N\NC(=O)N/N=C(/C=C/c1ccc(Cl)cc1)C(C)C | 39 | 94.7 | 60 | 87.6 | > 100 | 55.9 | > 100 | 41.3 | 59.8 | 38.8
O[C@@]12Cc3c([nH]c4ccccc34)[C@@H]3Oc4c(-c5ccccc5)ccc5c4[C@@]31CCN(CC1CC1)[C@@H]2C5 | 3.1 | 15 | 3.31 | 3.27 | 3.23 | 3.55 | 3.76 | 14.7 | 3.3 | 3.95
c1ccc2c(c1)-c1ccccc1C2NC1=NCCO1 | 32.1 | 40.3 | 32.5 | 53 | 24 | > 100 | 95.3 | > 100 | 39.5 | > 100
O=C(OCC(OC(=O)c1ccccc1)C1CC(C2(O)CCCCC2)C(=O)O1)c1ccccc1 (stereo not given) | > 25 | > 25 | > 25 | > 25 | > 25 | 7.85 | > 25 | > 25 | > 25 | > 25
CCCCCCCCCCCCCCCC(=O)OC1C(O)C(O)C(O)C(O)C12CO2 (stereo not given) | > 100 | > 100 | > 100 | > 100 | > 100 | > 100 | 89.7 | > 100 | > 100 | > 100
Cn1c(=O)cc(Nc2ccc(N)cc2)[nH]c1=O | > 100 | > 100 | > 100 | > 100 | > 100 | > 100 | > 100 | > 100 | > 100 | > 100
C/C(=N\O)c1cccc(Nc2c3ccccc3nc3occc23)c1 | 18.8 | 13.2 | > 100 | 5.73 | > 100 | 49.4 | > 100 | 56.9 | 25.2 | > 100
O=C1OC(c2ccccc2Br)=N/C1=C/c1ccccc1 | > 100 | > 100 | 41.1 | 93.7 | 49.4 | > 100 | > 100 | > 100 | 41.7 | 96.8
c1cc(CSc2ncnc3nc[nH]c23)ccn1 | > 100 | > 100 | > 100 | > 100 | > 100 | > 100 | > 100 | > 100 | > 100 | > 100
OC(Cc1cc(CC(O)(C(F)(F)F)C(F)(F)F)nc(CC(O)(C(F)(F)F)C(F)(F)F)c1)(C(F)(F)F)C(F)(F)F | 2.76 | 5.58 | 8.25 | 7.94 | 4.09 | 2.65 | 0.776 | 4.87 | 4.31 | 8.79
CN(C)CC(C)(C)CN1c2ccccc2Sc2ccccc21 | 26.7 | 28.1 | 22.4 | 26.5 | 28.2 | 30.2 | 25.5 | 27.5 | 28.8 | 29.5
CN1CCN(c2n[nH]c(=O)c3c2nnn3C2CCCCC2)CC1 | > 100 | > 100 | > 100 | > 100 | > 100 | > 100 | > 100 | > 100 | > 100 | > 100
O=C(/C=C/c1cccc(Br)c1)N1CCN(CCOC(c2ccccc2)c2ccccc2)CC1 | > 100 | > 100 | > 100 | > 100 | > 100 | > 100 | > 100 | > 100 | > 100 | > 100
CC/C=C\C=C/C(=O)N/C=C/CCC | > 100 | > 100 | > 100 | > 100 | > 100 | > 100 | > 100 | > 100 | > 100 | > 100
CCCCCCCCCCCCc1ccsc1-c1ccc(-c2ccc(-c3sccc3CCCCCCCCCCCC)s2)s1 | > 100 | > 100 | > 100 | > 100 | > 100 | > 100 | > 100 | > 100 | > 100 | > 100
Cc1cccc(N=N/C(=N\NC(=O)c2cc(Cl)ccc2O)c2ccc(N(CCC#N)CCC#N)cc2C)c1 | > 100 | 43.6 | > 100 | > 100 | > 100 | > 100 | > 100 | > 100 | > 100 | > 100
